Assay results from patent publication US8466088B2, “Herbicidal compositions containing benzoylpyrazole compounds” (Ishihara Sangyo Kaisha, Ltd., priority 2007, dated 2013).
Read-outs that look alike come from different tables or passages of the source.

How the values were obtained:
various plants = assay: Example 1: pot test, foliar treatment, visually observed growth inhibition of other sown plants (Tables 5-1 to 5-137); format: in vivo; conditions: foliar, prickly sida 2.1 to 3.1 leaf stage, 20th day after application, read-out: Growth inhibition rate (%) of prickly sida, Measured value
Text: (§1) When the herbicidal activity in a case where two active ingredients are combined, is larger than the simple sum of the respective herbicidal activities of the two active ingredients (the expected activity), it is called a synergistic effect. The activity expected by the combination of two active ingredients can be calculated as follows (Colby S. R., “Weed”, vol. 15, p. 20-22, 1967). E=α+β−(α×β+100) where
(§2) α: growth inhibition rate when treated with x (g/ha) of herbicide X,
(§3) β: growth inhibition rate when treated with y (g/ha) of herbicide Y,
(§4) E: growth inhibition rate expected when treated with x (g/ha) of herbicide X and y (g/ha) of herbicide Y.
(§5) That is, when the actual growth inhibition rate (measured value) is larger than the growth inhibition rate by the above calculation (calculated value), the activity by the combination can be regarded as showing a synergistic effect.
(§6) Upland field soil was put into a 1/1,000,000 hectare pot, and seeds of various plants were sown. When the respective plants reached predetermined leaf stage, herbicidal compositions in predetermined amounts were diluted with water in an amount corresponding to 300 L/ha and applied for foliar treatment by a small sprayer.
On the 14th to 28th day after application, the state of growth of the respective plants was visually observed to determine the growth inhibition rate (measured value) in accordance with the following evaluation standard. Further, in accordance with the above Colby's formula, the growth inhibition rate (calculated value) was calculated. In Tables, with respect to the compound A, Compound Nos. in Table 1 or 3 are described, and with respect to other herbicidal compounds, common names are described.

velvetleaf = assay: Example 1: pot test, foliar treatment, visually observed growth inhibition of velvetleaf; format: in vivo, Abutilon theophrasti MEDIC.
Text: as §1, §2, §3, §4, §5, §6
(§7) Further, in accordance with the above Colby's formula, the growth inhibition rate (calculated value) was calculated. In Tables, with respect to the compound A, Compound Nos. in Table 1 or 3 are described, and with respect to other herbicidal compounds, common names are described.

crabgrass = assay: Example 1: pot test, foliar treatment, visually observed growth inhibition of crabgrass; format: in vivo
Text: as §1, §2, §3, §4, §5, §6, §7

What does the source list for `CCNc1nc(Cl)nc(NC(C)(C)C)n1` [Terbuthylazine, terbuthylazine, reference compound]?
inhibition at 45 g/ha (various plants; 45 g/ha): 0%; inhibition at 63 g/ha (various plants; 63 g/ha): 0%; inhibition at 125 g/ha (various plants; 125 g/ha): 0%; inhibition at 250 g/ha (various plants; 250 g/ha): 15%; inhibition at 500 g/ha (various plants; 500 g/ha): 55%; inhibition at 125 g/ha (velvetleaf; Abutilon theophrasti, foliar, 2.0 to 2.5 leaf stage, 21st day after application, 125 g/ha, read-out: Growth inhibition rate (%) of velvetleaf, Measured value): 0%; inhibition at 125 g/ha (velvetleaf; Abutilon theophrasti, foliar, 2.4 to 3.2 leaf stage, on the 22nd day after application, foliar, active ingredient amount 125 g/ha, read-out: Growth inhibition rate (%) of velvetleaf, Measured value): 5%; inhibition at 2000 g/ha (velvetleaf; Abutilon theophrasti, foliar, 2.8 to 3.6 leaf stage, 24th day after application, 2000 g/ha, read-out: Growth inhibition rate (%) of velvetleaf, Measured value): 20%; inhibition at 125 g/ha (velvetleaf; Abutilon theophrasti, foliar, 3.0 to 3.5 leaf stage, 20th day after application, 125 g/ha, read-out: Growth inhibition rate (%) of velvetleaf, Measured value): 0%; inhibition at 375 g/ha (velvetleaf; Abutilon theophrasti, foliar, 3.3 to 4.3 leaf stage, 20th day after application, read-out: Growth inhibition rate (%) of velvetleaf, Measured value): 20%; inhibition at 750 g/ha (velvetleaf; Abutilon theophrasti, foliar, 3.3 to 4.3 leaf stage, 20th day after application, 750 g/ha, read-out: Growth inhibition rate (%) of velvetleaf, Measured value): 30%; inhibition at 175 g/ha (velvetleaf; Abutilon theophrasti, foliar, 4.0 to 4.4 leaf stage, 22nd day after application, 175 g/ha, read-out: Growth inhibition rate (%) of velvetleaf, Measured value): 15%; inhibition at 375 g/ha (velvetleaf; Abutilon theophrasti, foliar, 4.0 to 4.4 leaf stage, 22nd day after application, read-out: Growth inhibition rate (%) of velvetleaf, Measured value): 25%; inhibition at 175 g/ha (crabgrass; Digitaria sanguinalis, foliar, 3.1 to 4.0 leaf stage, 22nd day after application, 175 g/ha, read-out: Growth inhibition rate (%) of crabgrass, Measured value): 0%; inhibition at 375 g/ha (crabgrass; Digitaria sanguinalis, foliar, 3.1 to 4.0 leaf stage, 22nd day after application, 375 g/ha, read-out: Growth inhibition rate (%) of crabgrass, Measured value): 0%; inhibition at 250 g/ha (crabgrass; Digitaria sanguinalis, foliar, 3.2 to 4.3 leaf stage, on the 22nd day after application, foliar, active ingredient amount 250 g/ha, read-out: Growth inhibition rate (%) of crabgrass, Measured value): 20%; inhibition at 125 g/ha (crabgrass; Digitaria sanguinalis, foliar, 3.5 to 4.0 leaf stage, 21st day after application, read-out: Growth inhibition rate (%) of crabgrass, Measured value): 0%; inhibition at 125 g/ha (crabgrass; Digitaria sanguinalis, foliar, 4.3 to 4.5 leaf stage, 20th day after application, read-out: Growth inhibition rate (%) of crabgrass, Measured value): 0%; inhibition at 250 g/ha (crabgrass; Digitaria sanguinalis, foliar, 4.3 to 4.5 leaf stage, 20th day after application, 250 g/ha, read-out: Growth inhibition rate (%) of crabgrass, Measured value): 0%

What does the source list for `COCCOc1c(S(C)(=O)=O)ccc(C(=O)c2cnn(C)c2O)c1C` [No. 2-28]?
Growth inhibition rate (%) of velvetleaf, Measured value (velvetleaf; 3.3 to 4.2 leaf stage, 14th day after application, 7 g/ha): 93%; Growth inhibition rate (%) of velvetleaf, Measured value (velvetleaf; 3.3 to 4.2 leaf stage, 14th day after application, 15 g/ha): 97%; Growth inhibition rate (%) of velvetleaf, Measured value (velvetleaf; 3.3 to 4.2 leaf stage, 22nd day after application, 7 g/ha): 93%; Growth inhibition rate (%) of velvetleaf, Measured value (velvetleaf; 3.3 to 4.2 leaf stage, 22nd day after application, 15 g/ha): 97%; Growth inhibition rate (%) of velvetleaf, Measured value (velvetleaf; 3.5 to 4.0 leaf stage, 14th day after application, 7 g/ha): 83%; Growth inhibition rate (%) of velvetleaf, Measured value (velvetleaf; 3.5 to 4.0 leaf stage, 14th day after application, 15 g/ha): 95%; Growth inhibition rate (%) of velvetleaf, Measured value (velvetleaf; 3.5 to 4.0 leaf stage, 22nd day after application, 7 g/ha): 90%; Growth inhibition rate (%) of velvetleaf, Measured value (velvetleaf; 3.5 to 4.1 leaf stage, 14th day after application, 7 g/ha): 75%; Growth inhibition rate (%) of velvetleaf, Measured value (velvetleaf; 3.5 to 4.1 leaf stage, 14th day after application, 15 g/ha): 85%; Growth inhibition rate (%) of velvetleaf, Measured value (velvetleaf; 3.5 to 4.1 leaf stage, 20th day after application, 7 g/ha): 75%; Growth inhibition rate (%) of velvetleaf, Measured value (velvetleaf; 3.5 to 4.1 leaf stage, 20th day after application, 15 g/ha): 88%; Growth inhibition rate (%) of crabgrass, Measured value (crabgrass; 3.5 to 5.0 leaf stage, 22nd day after application, 7 g/ha): 88%; Growth inhibition rate (%) of crabgrass, Measured value (crabgrass; 3.5 to 5.0 leaf stage, 22nd day after application, 15 g/ha): 93%; Growth inhibition rate (%) of crabgrass, Measured value (crabgrass; 3.6 to 4.5 leaf stage, 14th day after application, 7 g/ha): 90%; Growth inhibition rate (%) of crabgrass, Measured value (crabgrass; 3.6 to 4.5 leaf stage, 14th day after application, 15 g/ha): 97%; Growth inhibition rate (%) of crabgrass, Measured value (crabgrass; 3.6 to 4.5 leaf stage, 22nd day after application, 7 g/ha): 93%; Growth inhibition rate (%) of crabgrass, Measured value (crabgrass; 4.1 to 5.3 leaf stage, 14th day after application, 15 g/ha): 85%; Growth inhibition rate (%) of crabgrass, Measured value (crabgrass; 4.1 to 5.3 leaf stage, 20th day after application, 7 g/ha): 85%; Growth inhibition rate (%) of crabgrass, Measured value (crabgrass; 4.1 to 5.3 leaf stage, 20th day after application, 15 g/ha): 97%; Growth inhibition rate (%) of crabgrass, Measured value (crabgrass; 4.3 to 4.5 leaf stage, 20th day after application, 15 g/ha): 80%

`COC(=O)c1c(S(C)(=O)=O)ccc(C(=O)c2cnn(C)c2O)c1C` [No. 2-1] was tested. Which “Growth inhibition rate (%) of velvetleaf, Measured value” (velvetleaf; 3.5 to 4.3 leaf stage, 21st day after application, 3.5 g/ha) did it give?
The value was 30%.

And the “Growth inhibition rate (%) of crabgrass, Measured value” (crabgrass; 3.8 to 4.4 leaf stage, 21st day after application, 3.5 g/ha)?
Its value is 45%.

Which inhibition at 200 g/ha (velvetleaf; Abutilon theophrasti, foliar, 3.2 to 4.3 leaf stage, 21st day after application, 200 g/ha, read-out: Growth inhibition rate (%) of velvetleaf, Measured value) does the source give for `CCCCCCCCSC(=O)Oc1cc(Cl)nnc1-c1ccccc1` [Pyridate] here?
Its inhibition at 200 g/ha is 0%.

And the inhibition at 100 g/ha (crabgrass; Digitaria sanguinalis, foliar, 3.0 to 4.3 leaf stage, 21st day after application, 100 g/ha, read-out: Growth inhibition rate (%) of crabgrass, Measured value)?
Its inhibition at 100 g/ha is 0%.

What about the inhibition at 200 g/ha (crabgrass; Digitaria sanguinalis, foliar, 3.0 to 4.3 leaf stage, 21st day after application, read-out: Growth inhibition rate (%) of crabgrass, Measured value) of the same compound?
Its inhibition at 200 g/ha is 0%.

What about the inhibition at 200 g/ha (crabgrass; Digitaria sanguinalis, foliar, 3.2 to 4.3 leaf stage, 21st day after application, read-out: Growth inhibition rate (%) of crabgrass, Measured value) of the same compound?
Its inhibition at 200 g/ha is 0%.

And the inhibition at 200 g/ha (crabgrass; Digitaria sanguinalis, foliar, 4.1 to 5.3 leaf stage, 20th day after application, read-out: Growth inhibition rate (%) of crabgrass, Measured value)?
Its inhibition at 200 g/ha is 5%.

Which “Growth inhibition rate (%) of velvetleaf, Measured value” (velvetleaf; 3.3 to 4.3 leaf stage, 20th day after application, 150 g/ha) does the source give for `NCCO.O=C(O)c1nc(Cl)ccc1Cl` [Clopyralid-olamine] here?
The value was 5%.

What about the “Growth inhibition rate (%) of velvetleaf, Measured value” (velvetleaf; 3.3 to 4.3 leaf stage, 20th day after application, 300 g/ha) of the same compound?
Its value is 10%.

And the “Growth inhibition rate (%) of velvetleaf, Measured value” (velvetleaf; 3.5 to 4.1 leaf stage, 14th day after application, 150 g/ha)?
The value was 20%.

What about the “Growth inhibition rate (%) of velvetleaf, Measured value” (velvetleaf; 3.5 to 4.1 leaf stage, 14th day after application, 300 g/ha) of the same compound?
The value was 20%.

What about the “Growth inhibition rate (%) of crabgrass, Measured value” (crabgrass; 3.0 to 4.3 leaf stage, 21st day after application, 100 g/ha) of the same compound?
The value was 0%.

What does the source list for `CCn1ncc(C(=O)c2ccc(S(C)(=O)=O)c(OCCOC)c2C)c1OC(=O)SC(C)C` [No. 208]?
Growth inhibition rate (%) of velvetleaf, Measured value (velvetleaf; 3.2 to 4.1 leaf stage, 21st day after application, 7.75 g/ha): 73%; Growth inhibition rate (%) of velvetleaf, Measured value (velvetleaf; 3.2 to 4.1 leaf stage, 21st day after application, 15.5 g/ha): 73%; Growth inhibition rate (%) of crabgrass, Measured value (crabgrass; 2.7 to 3.6 leaf stage, 21st day after application, 7.75 g/ha): 83%; Growth inhibition rate (%) of crabgrass, Measured value (crabgrass; 2.7 to 3.6 leaf stage, 21st day after application, 15.5 g/ha): 83%
